Test results as given in the Kinase Knowledgebase extract (Sharma et al. 2016).

Target: PIK3CG (human) (UniProt P48736)
Assay: Inhibition of PIK3CG Kinase Activity

Chain of PIK3CG (human) (P48736 whole entry, looked up): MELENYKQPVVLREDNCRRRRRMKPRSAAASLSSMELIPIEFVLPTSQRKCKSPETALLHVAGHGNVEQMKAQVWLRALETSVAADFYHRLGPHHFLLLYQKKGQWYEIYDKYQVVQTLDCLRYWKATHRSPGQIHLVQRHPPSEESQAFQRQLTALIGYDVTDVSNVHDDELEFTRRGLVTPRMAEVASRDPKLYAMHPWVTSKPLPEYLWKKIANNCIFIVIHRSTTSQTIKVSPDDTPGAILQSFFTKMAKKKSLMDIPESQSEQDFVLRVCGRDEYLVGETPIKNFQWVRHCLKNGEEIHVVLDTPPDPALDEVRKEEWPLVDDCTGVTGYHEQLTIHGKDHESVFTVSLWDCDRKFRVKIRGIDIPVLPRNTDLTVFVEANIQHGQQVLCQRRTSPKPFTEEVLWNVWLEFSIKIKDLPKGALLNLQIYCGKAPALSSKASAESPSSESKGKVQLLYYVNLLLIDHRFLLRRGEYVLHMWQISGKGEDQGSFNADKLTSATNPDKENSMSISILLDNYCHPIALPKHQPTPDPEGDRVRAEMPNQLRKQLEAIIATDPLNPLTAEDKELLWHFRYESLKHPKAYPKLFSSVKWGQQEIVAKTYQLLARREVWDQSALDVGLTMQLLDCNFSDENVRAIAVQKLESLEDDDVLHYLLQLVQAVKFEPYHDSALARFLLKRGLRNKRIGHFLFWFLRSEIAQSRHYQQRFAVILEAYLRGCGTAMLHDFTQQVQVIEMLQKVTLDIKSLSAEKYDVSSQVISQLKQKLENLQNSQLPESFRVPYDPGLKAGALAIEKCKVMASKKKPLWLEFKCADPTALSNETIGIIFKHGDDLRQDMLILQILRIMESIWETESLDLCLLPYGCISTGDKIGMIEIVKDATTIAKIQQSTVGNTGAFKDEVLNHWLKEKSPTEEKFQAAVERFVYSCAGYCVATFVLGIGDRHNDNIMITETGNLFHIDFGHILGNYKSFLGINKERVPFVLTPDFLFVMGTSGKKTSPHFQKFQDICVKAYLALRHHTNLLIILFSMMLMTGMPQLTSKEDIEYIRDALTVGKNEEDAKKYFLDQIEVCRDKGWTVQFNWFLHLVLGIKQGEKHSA

SMILES	Ki [nM]
COc1cc(-c2ccc3c(n2)CN(c2cnn([C@@H](C)C#N)c2)C3=O)cnc1OC	< 100
Cc1cc(-c2cncc(C(=O)NC(C)(C)C)c2)nc2c1C(=O)N(c1cnn(CC(F)(F)F)c1)C2(C)C	< 100
CCCOc1cc(-c2cc(C)c3c(n2)C(C)(C)N(c2cnn(CC#N)c2)C3=O)cnc1CC	< 100
COC(=O)Cc1cncc(N2Cc3nc(-c4cnc(OC)c(OC)c4)ccc3C2=O)c1	< 100
COc1cc(-c2ccc3c(n2)CN(c2cncc(C(C)(C)C#N)c2)C3=O)cnc1OC	< 100
COc1cc(-c2cc(C)c3c(c2)CN(c2cnn(CC#N)c2)C3=O)cnc1OC	< 100
COc1ccc(-c2cc(C)c3c(c2)CN(c2cnn(CC#N)c2)C3=O)cc1OC	< 100
COc1cc(-c2ccc3c(c2)CN(c2cccc(Cn4cncn4)c2)C3=O)cnc1OC	< 100
Cc1cc(-c2cncc(OCC(F)(F)F)c2)nc2c1C(=O)N(c1cnn(CC(F)F)c1)C2(C)C	< 100
CCOc1ncc(-c2cc(C)c3c(n2)CN(c2cncc(CCC#N)c2)C3=O)cc1OC	< 100
CCOc1ncc(-c2cc(C)c3c(n2)CN(c2cn(CC(F)(F)F)cn2)C3=O)cc1OC	< 100
Cc1cc(-c2cncc(C(=O)NCC(F)F)c2)nc2c1C(=O)N(c1cnn(CC(F)(F)F)c1)C2(C)C	< 100
COc1ncc(-c2cc(C)c3c(n2)CN(c2ccn(C4COC4)n2)C3=O)cc1OCC(F)(F)F	< 100
CCn1cc(N2Cc3nc(-c4cncc(OC)c4)cc(C)c3C2=O)cn1	< 100
CCn1ccc(N2C(=O)c3c(C)cc(-c4cncc(OC(F)F)c4)nc3C2C)n1 (stereo not given)	< 100
COc1cc(-c2ccc3c(n2)CN(c2cnn(CCN4CCOCC4)c2)C3=O)cnc1OC	100 to 490
CCn1ccc(N2Cc3cc(-c4cnc(OC)c(OC)c4)ccc3C2=O)n1	< 100
CCOc1cc(-c2cc(C)c3c(c2)CN(c2cnn(CC(F)(F)F)c2)C3=O)cnc1OCC	< 100
Cc1cc(-c2cncc(CO)c2)nc2c1C(=O)N(c1cc[nH]n1)C2	100 to 490
Cc1cc(-c2cncc(C(=O)O)c2)nc2c1C(=O)N(c1cnn(CC(F)(F)F)c1)C2C (stereo not given)	< 100
COc1cc(-c2ccc3c(n2)CN(c2cnn(C(C)C#N)c2)C3=O)cnc1OC (stereo not given)	< 100
CCOc1ccc(N2Cc3nc(-c4cnc(OC)c(OC)c4)ccc3C2=O)cn1	100 to 490
CCCCn1cc(N2Cc3cc(-c4cnc(OC)c(OC)c4)ccc3C2=O)cn1	100 to 490
COc1cc(-c2ccc3c(n2)CN(c2ccc(OC(CO)C(F)(F)F)nc2)C3=O)cnc1OC (stereo not given)	< 100

SMILES	Ki [nM]
COc1cc(-c2ccc3c(n2)C(C)N(c2cnn(CC#N)c2)C3=O)cnc1OC (stereo not given)	< 100
COc1ncc(-c2cc(C)c3c(n2)CN(c2cn[nH]c2)C3=O)cc1OC(C)C	< 100
Cc1cc(-c2cncc(OC(F)F)c2)nc2c1C(=O)N(c1cnn(C(C)(C)C#N)c1)C2	< 100
COc1cc(-c2ccc3c(n2)C(C)N(c2ccn(C)n2)C3=O)cnc1OC (stereo not given)	< 100
COCn1cc(N2Cc3cc(-c4cnc(OC)c(OC)c4)ccc3C2=O)cn1	< 100
COc1cccc(-c2cc(C)c3c(n2)CN(c2cnn(C(C)(C)C#N)c2)C3=O)c1	< 100
COCCNC(=O)c1cc(-c2cc(C)c3c(n2)C(C)(C)N(c2cnn(CC(F)(F)F)c2)C3=O)cnc1OC	< 100
COc1cc(-c2cc(C)c3c(n2)CN(c2cnn(C[C@@H](C)O)c2)C3=O)cnc1OC	< 100
COc1cc(-c2ccc3c(n2)CN(c2ccc(N4CCC[C@@H]4CO)nc2)C3=O)cnc1OC	< 100
COc1cc(-c2ccc3c(n2)[C@H](C)N(c2cc[nH]n2)C3=O)cnc1OC	< 100
Cc1cc(-c2cncc(OCC(F)(F)F)c2)nc2c1C(=O)N(c1cnn(CC(F)(F)F)c1)[C@H]2C	< 100
CCn1cc(N2Cc3nc(-c4cnc(OC)c(OC)c4)cc(C)c3C2=O)cn1	< 100
CCn1ccc(N2Cc3nc(-c4cnc(OC)c(OCC(F)(F)F)c4)cc(C)c3C2=O)n1	< 100
CCOc1cc(-c2ccc3c(n2)CN(c2cnn(CC#N)c2)C3=O)cnc1OCC	< 100
COc1cncc(-c2cc(C)c3c(n2)C(C)(C)N(c2cc[nH]n2)C3=O)c1	100 to 490
Cc1cc(-c2cncc(S(C)(=O)=O)c2)nc2c1C(=O)N(c1cnn(CC(F)(F)F)c1)C2(C)C	< 100
COc1cc(-c2ccc3c(n2)CN(c2cccs2)C3=O)cnc1OC	< 100
COc1ncc(-c2cc(C)c3c(n2)C(C)(C)N(c2cnn(CC(F)(F)F)c2)C3=O)cc1C(=O)NC(C)C	< 100
COc1ncc(-c2cc(C)c3c(n2)CN(c2cnn(CC(F)(F)F)c2)C3=O)cc1F	< 100
COCCOc1ncc(-c2cc(C)c3c(n2)[C@H](C)N(c2ccn(C)n2)C3=O)cc1OC	< 100
COc1cc(-c2ccc3c(n2)C(OC)N(c2cnn(CC(F)(F)F)c2)C3=O)cnc1OC (stereo not given)	< 100
Cc1cc(-c2cncc(OC(F)F)c2)nc2c1C(=O)N(c1ccnc(OCC(F)F)c1)C2C (stereo not given)	< 100
COc1cc(-c2ccc3c(n2)CN(c2ccn(C)n2)C3=O)cnc1OC	< 100
COc1cc(-c2ccc3c(n2)CN(c2ccc(=O)n(C)c2)C3=O)cnc1OC	100 to 490

SMILES	Ki [nM]
COc1cc(-c2cc(C)c3c(n2)[C@H](C)N(c2cnn(CC(F)(F)F)c2)C3=O)cnc1C	< 100
CCc1cc(N2Cc3nc(-c4cncc(OC(F)F)c4)ccc3C2=O)nn1C[C@H](C)O	100 to 490
COc1cc(-c2ccc3c(n2)CN(c2cnn(CCn4cncn4)c2)C3=O)cnc1OC	< 100
COc1cncc(-c2cc(C)c3c(n2)C2(CCOC2)N(c2cnn(CC(F)(F)F)c2)C3=O)c1 (stereo not given)	< 100
COc1cc(-c2ccc3c(n2)CN(c2ccn(C[C@@H](C)O)n2)C3=O)cnc1OC	< 100
COC(=O)Cc1cncc(N2Cc3nc(-c4cnc(OC)c(OC)c4)cc(C)c3C2=O)c1	< 100
COc1cc(-c2cc(C)c3c(n2)C2(CC2)N(c2cnn(CC(F)(F)F)c2)C3=O)cnc1OC(C)C	< 100
COc1cc(-c2cc(C)c3c(n2)CN(c2ccc(C)s2)C3=O)cnc1OC	< 100
COCCOc1ncc(-c2cc(C)c3c(n2)C(C)N(c2ccn(C)n2)C3=O)cc1OC (stereo not given)	< 100
COc1cc(-c2ccc3c(n2)[C@H](C)N(c2cccc(C(C)(C)C#N)n2)C3=O)cnc1OC	< 100
COc1cc(-c2cc(C)c3c(n2)CN(c2cnn(C[C@H](C)O)c2)C3=O)cnc1OC	< 100
COc1cc(-c2ccc3c(c2)CN(c2cnn(CC(F)F)c2)C3=O)cnc1OC	< 100
Cc1cc(-c2cncc(F)c2)nc2c1C(=O)N(c1cnn(CC#N)c1)C2	< 100
COc1cc(-c2ccc3c(n2)[C@H](C)N(c2ccn(CC(C)(C)O)n2)C3=O)cnc1OC	< 100
COc1ncc(-c2cc(C)c3c(n2)CN(c2cc[nH]n2)C3=O)cc1OC(F)F	< 100
COc1cncc(-c2cc(C)c3c(n2)C2(CC(O)C2)N(c2cnn(CC(F)(F)F)c2)C3=O)c1 (stereo not given)	< 100
C=C1c2nc(-c3cnc(OC)c(OC)c3)ccc2C(=O)N1c1cnn(CC#N)c1	< 100
COc1cc(-c2cc(C)c3c(n2)[C@@H](C)N(c2cnn(CC(F)(F)F)c2)C3=O)cnc1C	< 100
COc1cc(-c2ccc3c(n2)CN(c2cc(C)[nH]n2)C3=O)cnc1OC	< 100
Cc1cc(-c2cc(O)cs2)nc2c1C(=O)N(c1cnn(CC(F)(F)F)c1)C2	< 100
C#CCn1cc(N2Cc3cc(-c4cnc(OC)c(OC)c4)ccc3C2=O)cn1	< 100
COc1csc(-c2cc(C)c3c(n2)CN(c2cnn(CC(F)(F)F)c2)C3=O)c1	< 100
